Test results taken from paper PMC8036666, “Biological and Physico-Chemical Characteristics of Arginine-Rich Peptide Gemini Surfactants with Lysine and Cystine Spacers” (International Journal of Molecular Sciences, 2021).
Converted amounts (≈) assume the structure as drawn. “And” between values parts separate entries of the source, which are not always exact repeats. Identical values can stand only once. Like-named read-outs stand apart in the source and are kept apart here. Where a SMILES comes first, the peptide text is derived from it. Bridges are numbered along the chain shown (N, C = ends). Roman numbers before positions name the chains, in order. Side-chain parts run from the residue outwards. [ ]: non-standard residue; d: D form. The star is where a group is joined. Myristoyl = CCCCCCCCCCCCCC(=O)*; Nle = CCCC[C@H](N)C(=O)O; Octanoyl = CCCCCCCC(=O)*

Experiments:
[1] = tested on: Pseudomonas aeruginosa ATCC 9027
[2] = tested on: Staphylococcus aureus ATCC 25923
[3] = tested on: Klebsiella pneumoniae ATCC 700603
[4] = tested on: Klebsiella aerogenes ATCC 13048
[5] = tested on: Acinetobacter baumannii ATCC BAA 1605
[6] = tested on: Enterococcus faecium ATCC 700221
[7] = Lipopeptide hydrophobicity by RP-HPLC (adjusted retention time); type: physicochemical; settings: for Adjusted Retention Time: RP-HPLC, 20–65% acetonitrile over 30 min, indicator of hydrophobicity; for Difference in retention time calculated as tR’C—tR’B: between corresponding surfactants of series C and B
How it was run: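 Analytical RP-HPLC on an embedded-polar-group RP-18 column, 20–65% acetonitrile gradient in water (both 0.1% TFA) over 30 min at 0.5 mL/min, 25.0 °C. Peptides at 1 mg/mL in 0.1% TFA water, UV detection at 214 nm. Triplicate runs.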

[8] = Critical aggregation concentration by surface tension (Du Noüy ring, K100 tensiometer); type: physicochemical; settings: unbuffered aqueous solution, 298 K
Description: The identity of the purified peptides was confirmed with electrospray ionization mass spectrometry (ESI-MS) in positive ion mode. Results of MS analyses and net charge are attached in Supplementary Materials (Table S1). Peptides’ hydrophobicity was evaluated by analytical reversed-phase high-performance liquid chromatography (RP-HPLC). The critical aggregation concentrations (CACs) of the lipopeptides were determined in unbuffered aqueous solution at 298 K by measuring the surface tension as a function of lipopeptide concentration. The measurements were carried out by the Du Noüy ring method on a K100 tensiometer. The surface tension data were plotted against the logarithm of lipopeptide concentration. CAC was found as the intersection of two lines being linear regression of data below and above CAC.
The critical aggregation concentration (CAC) values were determined fully automatically using a K100 tensiometer (KRUSS, Hamburg, Germany) equipped with two micro dosimeters by measuring the surface tension vs. lipopeptide concentration. The measurements were performed in unbuffered aqueous solution at 298 K using the Du Noüy ring method. The accuracy of the surface tension measurements was 0.1 mN/m. The critical aggregation concentration (CAC) was defined as the intersection of two lines fitted to the experimental data collected before and after the inflection point.

[9] = tested on: Staphylococcus aureus ATCC 25923; type: cell-based
How it was run: (§1)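 Adherent bacterial biofilms (24 h, 37 °C, MHB) received compound at 1–512 μg/mL for 24 h; resazurin reduction ≤10 ± 0.5% versus controls defined MBEC. Done in triplicate.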

[10] = tested on: Staphylococcus aureus ATCC 33591; type: cell-based
How it was run: as §1

[11] = tested on: Candida glabrata ATCC 15126; type: cell-based
[12] = tested on: Klebsiella aerogenes ATCC 13048; type: cell-based
How it was run: as §1

[13] = tested on: Acinetobacter baumannii ATCC BAA 1605; type: cell-based
How it was run: as §1

| SMILES | MIC Staphylococcus aureus ATCC 25923 ([2]; planktonic culture) [µg/mL] | MIC Klebsiella pneumoniae ATCC 700603 ([3]; planktonic culture) [µg/mL] | Adjusted Retention Time [7] [min] | Difference in retention time calculated as tR’C—tR’B [7] [min] | CAC [8] | Surface Tension at CAC [8] [mN/m] | MIC Pseudomonas aeruginosa ATCC 9027 ([1]; ATCC 9027, 24 h) [µg/mL] | MIC Staphylococcus aureus ATCC 25923 ([2]; ATCC 25923, 24 h) [µg/mL] | MIC Klebsiella aerogenes ATCC 13048 ([4]; ATCC 13048, 24 h) | MIC Acinetobacter baumannii ATCC BAA 1605 ([5]; ATCC BAA 1605, 24 h) [µg/mL] | MIC Enterococcus faecium ATCC 700221 ([6]; ATCC 700221, 24 h) [µg/mL] | MBEC Staphylococcus aureus ATCC 25923 ([9]; ATCC 25923, 24 h) [µg/mL] | MBEC Staphylococcus aureus ATCC 33591 ([10]; ATCC 33591, 24 h) [µg/mL] | MBEC Candida glabrata ATCC 15126 ([11]; ATCC 15126, 24 h) [µg/mL] | MBEC Klebsiella aerogenes ATCC 13048 ([12]; ATCC 13048, 24 h) [µg/mL] | MBEC Acinetobacter baumannii ATCC BAA 1605 ([13]; ATCC BAA 1605, 24 h) [µg/mL] | MIC Klebsiella pneumoniae ATCC 700603 ([3]; ATCC 700603, 24 h) | also measured |
| --- | --- | --- | --- | --- | --- | --- | --- | --- | --- | --- | --- | --- | --- | --- | --- | --- | --- | --- |
| CCCCCCCC(=O)N[C@@H](Cc1ccccc1)C(=O)N[C@@H](CCCNC(=N)N)C(=O)N[C@@H](CCCNC(=N)N)C(=O)N[C@@H](CSSC[C@H](NC(=O)[C@H](CCCNC(=N)N)NC(=O)[C@H](CCCNC(=N)N)NC(=O)[C@H](Cc1ccccc1)NC(=O)CCCCCCC)C(N)=O)C(N)=O [Compound C5] (I: Octanoyl-FRRC-NH2 / II: Octanoyl-FRRC-NH2; disulfide I:4-II:4) | 2 (≈ 1.42 µM) | 32 (≈ 22.7 µM) | 15.42 | 0.23 | 2.58 mM and 3632.7 μg/mL | 37 |  |  |  |  |  |  |  |  |  |  |  | MIC Pseudomonas aeruginosa ATCC 9027 ([1]; planktonic culture): 8 µg/mL (≈ 5.67 µM); MIC Klebsiella aerogenes ATCC 13048 ([4]; planktonic culture): 128 µg/mL (≈ 90.8 µM); MIC Acinetobacter baumannii ATCC BAA 1605 ([5]; planktonic culture): 32 µg/mL (≈ 22.7 µM); MIC Enterococcus faecium ATCC 700221 ([6]; planktonic culture): 2 µg/mL (≈ 1.42 µM); MBEC Staphylococcus aureus ATCC 25923 ([9]; 24 h biofilm on polystyrene): 64 µg/mL; MBEC Staphylococcus aureus ATCC 33591 ([10]; 24 h biofilm on polystyrene): 8 µg/mL; MBEC Candida glabrata ATCC 15126 ([11]; 24 h biofilm on polystyrene): 256 µg/mL; MBEC Klebsiella aerogenes ATCC 13048 ([12]; 24 h biofilm on polystyrene): 256 µg/mL; MBEC Acinetobacter baumannii ATCC BAA 1605 ([13]; 24 h biofilm on polystyrene): 512 µg/mL |
| CCCCCCCC(=O)N[C@@H](CCCC)C(=O)N[C@@H](CCCNC(=N)N)C(=O)N[C@@H](CCCNC(=N)N)C(=O)N[C@@H](CSSC[C@H](NC(=O)[C@H](CCCNC(=N)N)NC(=O)[C@H](CCCNC(=N)N)NC(=O)[C@H](CCCC)NC(=O)CCCCCCC)C(N)=O)C(N)=O [Compound C6] (I: Octanoyl-[Nle]RRC-NH2 / II: Octanoyl-[Nle]RRC-NH2; disulfide I:4-II:4) |  | 64 (≈ 47.7 µM) | 14.29 | 0.33 | 4.28 mM and 5737.7 μg/mL | 35 | 8 (≈ 5.96 µM) | 2 (≈ 1.49 µM) | 256 (−/−) µg/mL | 32 (≈ 23.8 µM) | 2 (≈ 1.49 µM) | 32 | 8 | 512 | 256 | 512 |  |  |
| CCCCCCCCCCCCCC(=O)N[C@@H](CCCNC(=N)N)C(=O)N[C@@H](CCCNC(=N)N)C(N)=O [Compound A4, C14-RR-NH2] (Myristoyl-Arg-Arg-NH2) |  |  | 16.31 |  | 1.67 mM and 899.7 μg/mL | 35 | 32 (≈ 59.3 µM) | 8 (≈ 14.8 µM) | 256 (−/−) µg/mL | 64 (≈ 119 µM) | 8 (≈ 14.8 µM) | 16 | 8 | 256 | 256 | 256 | 256 (−/−) µg/mL |  |
| CCCCCCCC(=O)N[C@@H](CCCC)C(=O)N[C@@H](CCCNC(=N)N)C(=O)N[C@@H](CCCNC(=N)N)C(=O)NCCCC[C@H](NC(=O)[C@H](CCCNC(=N)N)NC(=O)[C@H](CCCNC(=N)N)NC(=O)[C@H](CCCC)NC(=O)CCCCCCC)C(N)=O [Compound B6] (Octanoyl-[Nle]RRK([Arg-Arg-Nle-Octanoyl])-NH2) |  |  | 13.96 |  | 3.59 mM and 4482.4 μg/mL | 37 | 4 (≈ 3.2 µM) | 2 (≈ 1.6 µM) | 256 (−/−) µg/mL | 32 (≈ 25.6 µM) | 2 (≈ 1.6 µM) | 16 | 4 | 512 | 256 | 256 | 64 µg/mL (≈ 51.3 µM) |  |
| CCCCCCCCCCCCCC(=O)N[C@@H](CCCNC(=N)N)C(=O)N[C@@H](CCCNC(=N)N)C(=O)N[C@@H](CSSC[C@H](NC(=O)[C@H](CCCNC(=N)N)NC(=O)[C@H](CCCNC(=N)N)NC(=O)CCCCCCCCCCCCC)C(N)=O)C(N)=O [Compound C4] (I: Myristoyl-Arg-Arg-Cys-NH2 / II: Myristoyl-Arg-Arg-Cys-NH2; disulfide I:3-II:3) | 64 (≈ 49.9 µM) |  | 25.30 | -0.03 | 0.06 mM and 71.1 μg/mL | 47 | 64 (≈ 49.9 µM) |  | 128 µg/mL (≈ 99.7 µM) | 32 (≈ 24.9 µM) | 8 (≈ 6.23 µM) | 512 | 128 | 64 | 512 | 512 | >256 (−/−) µg/mL |  |
